Experimental data reported in patent US20260158102A1, “CYCLIC PEPTIDE DERIVATIVE COMPOSITION FOR TREATING OR PREVENTING NEUROPATHIC PAIN AND/OR INFLAMMATORY PAIN” (DKS Co. Ltd., priority 2022, published 2026).

What was measured:
[1] = Body weight measurement in rat STZ-induced diabetes model; format: in vivo; details: mean ± SE, in g (unit assumed)
Method: (§1) Compound 9 (50 mg/mL) was diluted with water for injection to obtain a 1 mg/mL administration specimen. For the specimens to be administered at 0.1 mg/mL and 0.01 mg/mL, the specimen to be administered at 1 mg/mL was diluted stepwise with water for injection. Each administration specimen was divided into PP disposable tubes every day and stored in a storehouse (freezer: MDF-MU339H-PJ, PHC Corporation) under the condition of freezing (−30° C. to −20° C., measured value: −26.4 to −24.5° C.). Preparation was performed on the day before the start of administration.
(§2) Water for injection was added to and dissolved in Pregabalin taken out from the capsule to obtain 2 mg/mL. It was prepared before use.
(§3) • Animal species: rat (SPF) • Strain: Crl: CD (SD) • Date of animal acquisition, gender, age in weeks, number of animals acquired, and weight range after 1 day of acquisition • First and second courses: Apr. 6, 2022, male, 7 weeks old, 35 animals, 217 to 237 g • Third and fourth courses: Apr. 13, 2022, male, 7 weeks old, 35 animals, 216 to 235 g • Source: […].
(§4) • Dose volume: calculated at 2 mL/kg based on the body weight on the day of administration. • Number of times of administration: once • Day of administration: 7 days before the day of starting administration of the test substance.
(§5) • Dose volume: calculated at 1 mL/kg based on the body weight on the day of administration. • Number of times of administration: 9 times • Interval of administration: once every 3 days (evaluation was performed on the day after administration) • Day of starting administration: day 8 of STZ administration (day of STZ administration is counted as day 1).
(§6) • Dose volume: calculated at 10 mL/kg based on the body weight on the day of administration. • Number of times of administration: Administration was performed once on the day of evaluation of neuropathic pain, twice in total, and on the other days of administration, a vehicle for a control substance (water for injection) was orally administered.
• Measurement was performed every day after the day of STZ administration.
(§7) The mean and standard error of each group were calculated for the 50% withdrawal threshold, body weight, and blood glucose level.
(§8) The body weight was an integer.
(§9) No significant difference test of body weight and blood glucose levels was performed.

[2] = Measurement of blood glucose level in rat STZ-induced diabetes model; format: in vivo; details: mean ± SE
Method: as §1, §2, §3, §4, §5, §6
On days 7 and 35 of STZ administration, about 50 μL of blood was collected from the tail vein using a winged injection needle (Terumo Corporation) equipped with a heparinized capillary (DRUMMOND […]).
The blood obtained above was centrifuged [centrifugal conditions: 4° C., 3,000 rpm (×2,150 g), 15 min] with a centrifuge (CF 9RX, Hitachi Koki Co., Ltd.) to obtain plasma. Blood glucose levels of a part of plasma obtained by blood collection on day 7 and day 35 after STZ administration were measured by hexokinase G-6 PDH method (L-type Wako Glu2, FUJIFILM Wako Pure Chemical Corporation) using a biochemical automatic analyzer (AU480, Beckman Coulter, Inc.). […] The plasma after the measurement was discarded.
as §7, §8, §9

CC[C@@]1(C)Oc2cc(ccc2O)C[C@H](NC)C(=O)N[C@@H](C(C)C)C(=O)N[C@@H]1C(=O)N[C@@H](CC(=O)O)C(=O)O [Compound 9]
Body weight ([1]; 0.01 mg/kg iv, day 1 of STZ administration): 295 ± 5
Body weight ([1]; 0.01 mg/kg iv, day 2 of STZ administration): 281 ± 4
Body weight ([1]; 0.01 mg/kg iv, day 3 of STZ administration): 277 ± 4
Body weight ([1]; 0.01 mg/kg iv, day 4 of STZ administration): 280 ± 5
Body weight ([1]; 0.01 mg/kg iv, day 5 of STZ administration): 282 ± 5
Body weight ([1]; 0.01 mg/kg iv, day 6 of STZ administration): 287 ± 5
Body weight ([1]; 0.01 mg/kg iv, day 7 of STZ administration): 291 ± 5
Body weight ([1]; 0.01 mg/kg iv, day 8 of STZ administration): 290 ± 6
Body weight ([1]; 0.01 mg/kg iv, day 9 of STZ administration): 292 ± 5
Body weight ([1]; 0.01 mg/kg iv, day 10 of STZ administration): 297 ± 6
Body weight ([1]; 0.01 mg/kg iv, day 11 of STZ administration): 298 ± 6
Body weight ([1]; 0.01 mg/kg iv, day 12 of STZ administration): 302 ± 7
Body weight ([1]; 0.01 mg/kg iv, day 13 of STZ administration): 304 ± 6
Body weight ([1]; 0.01 mg/kg iv, day 14 of STZ administration): 306 ± 7
Body weight ([1]; 0.01 mg/kg iv, day 15 of STZ administration): 306 ± 8
Body weight ([1]; 0.01 mg/kg iv, day 16 of STZ administration): 307 ± 8
Body weight ([1]; 0.01 mg/kg iv, day 17 of STZ administration): 309 ± 8
Body weight ([1]; 0.01 mg/kg iv, day 18 of STZ administration): 311 ± 8
Body weight ([1]; 0.01 mg/kg iv, day 19 of STZ administration): 309 ± 8
Body weight ([1]; 0.01 mg/kg iv, day 20 of STZ administration): 312 ± 8
Body weight ([1]; 0.01 mg/kg iv, day 21 of STZ administration): 312 ± 8
Body weight ([1]; 0.01 mg/kg iv, day 22 of STZ administration): 311 ± 9
Body weight ([1]; 0.01 mg/kg iv, day 23 of STZ administration): 312 ± 9
Body weight ([1]; 0.01 mg/kg iv, day 24 of STZ administration): 310 ± 9
Body weight ([1]; 0.01 mg/kg iv, day 25 of STZ administration): 312 ± 10
Body weight ([1]; 0.01 mg/kg iv, day 26 of STZ administration): 315 ± 10
Body weight ([1]; 0.01 mg/kg iv, day 27 of STZ administration): 308 ± 10
Body weight ([1]; 0.01 mg/kg iv, day 28 of STZ administration): 312 ± 10
Body weight ([1]; 0.01 mg/kg iv, day 29 of STZ administration): 311 ± 11
Body weight ([1]; 0.01 mg/kg iv, day 30 of STZ administration): 313 ± 11
Body weight ([1]; 0.01 mg/kg iv, day 31 of STZ administration): 309 ± 11
Body weight ([1]; 0.01 mg/kg iv, day 32 of STZ administration): 310 ± 12
Body weight ([1]; 0.01 mg/kg iv, day 33 of STZ administration): 308 ± 12
Body weight ([1]; 0.01 mg/kg iv, day 34 of STZ administration): 313 ± 12
Body weight ([1]; 0.1 mg/kg iv, day 1 of STZ administration): 293 ± 4
Body weight ([1]; 0.1 mg/kg iv, day 2 of STZ administration): 279 ± 5
Body weight ([1]; 0.1 mg/kg iv, day 3 of STZ administration): 275 ± 5
Body weight ([1]; 0.1 mg/kg iv, day 4 of STZ administration): 277 ± 6
Body weight ([1]; 0.1 mg/kg iv, day 5 of STZ administration): 280 ± 5
Body weight ([1]; 0.1 mg/kg iv, day 6 of STZ administration): 285 ± 5
Body weight ([1]; 0.1 mg/kg iv, day 7 of STZ administration): 289 ± 5
Body weight ([1]; 0.1 mg/kg iv, day 8 of STZ administration): 287 ± 5
Body weight ([1]; 0.1 mg/kg iv, day 9 of STZ administration): 292 ± 5
Body weight ([1]; 0.1 mg/kg iv, day 10 of STZ administration): 295 ± 6
Body weight ([1]; 0.1 mg/kg iv, day 11 of STZ administration): 298 ± 6
Body weight ([1]; 0.1 mg/kg iv, day 12 of STZ administration): 300 ± 4
Body weight ([1]; 0.1 mg/kg iv, day 13 of STZ administration): 303 ± 6
Body weight ([1]; 0.1 mg/kg iv, day 14 of STZ administration): 305 ± 5
Body weight ([1]; 0.1 mg/kg iv, day 15 of STZ administration): 300 ± 6
Body weight ([1]; 0.1 mg/kg iv, day 16 of STZ administration): 302 ± 7
Body weight ([1]; 0.1 mg/kg iv, day 17 of STZ administration): 307 ± 7
Body weight ([1]; 0.1 mg/kg iv, day 18 of STZ administration): 305 ± 7
Body weight ([1]; 0.1 mg/kg iv, day 19 of STZ administration): 310 ± 8
Body weight ([1]; 0.1 mg/kg iv, day 20 of STZ administration): 312 ± 8
Body weight ([1]; 0.1 mg/kg iv, day 21 of STZ administration): 307 ± 7
Body weight ([1]; 0.1 mg/kg iv, day 22 of STZ administration): 311 ± 7
Body weight ([1]; 0.1 mg/kg iv, day 23 of STZ administration): 314 ± 8
Body weight ([1]; 0.1 mg/kg iv, day 24 of STZ administration): 312 ± 7
Body weight ([1]; 0.1 mg/kg iv, day 25 of STZ administration): 312 ± 7
Body weight ([1]; 0.1 mg/kg iv, day 26 of STZ administration): 312 ± 7
Body weight ([1]; 0.1 mg/kg iv, day 27 of STZ administration): 310 ± 8
Body weight ([1]; 0.1 mg/kg iv, day 28 of STZ administration): 315 ± 8
Body weight ([1]; 0.1 mg/kg iv, day 29 of STZ administration): 311 ± 7
Body weight ([1]; 0.1 mg/kg iv, day 30 of STZ administration): 313 ± 8
Body weight ([1]; 0.1 mg/kg iv, day 31 of STZ administration): 310 ± 8
Body weight ([1]; 0.1 mg/kg iv, day 32 of STZ administration): 312 ± 8
Body weight ([1]; 0.1 mg/kg iv, day 33 of STZ administration): 308 ± 8
Body weight ([1]; 1 mg/kg iv, day 1 of STZ administration): 293 ± 5
Body weight ([1]; 1 mg/kg iv, day 2 of STZ administration): 282 ± 6
Body weight ([1]; 1 mg/kg iv, day 3 of STZ administration): 277 ± 4
Body weight ([1]; 1 mg/kg iv, day 4 of STZ administration): 279 ± 4
Body weight ([1]; 1 mg/kg iv, day 5 of STZ administration): 284 ± 5
Body weight ([1]; 1 mg/kg iv, day 6 of STZ administration): 286 ± 5
Body weight ([1]; 1 mg/kg iv, day 7 of STZ administration): 291 ± 5
Body weight ([1]; 1 mg/kg iv, day 8 of STZ administration): 290 ± 5
Body weight ([1]; 1 mg/kg iv, day 9 of STZ administration): 291 ± 5
Body weight ([1]; 1 mg/kg iv, day 10 of STZ administration): 294 ± 6
Body weight ([1]; 1 mg/kg iv, day 11 of STZ administration): 300 ± 7
Body weight ([1]; 1 mg/kg iv, day 12 of STZ administration): 299 ± 6
Body weight ([1]; 1 mg/kg iv, day 13 of STZ administration): 303 ± 6
Body weight ([1]; 1 mg/kg iv, day 14 of STZ administration): 302 ± 6
Body weight ([1]; 1 mg/kg iv, day 15 of STZ administration): 303 ± 7
Body weight ([1]; 1 mg/kg iv, day 16 of STZ administration): 303 ± 8
Body weight ([1]; 1 mg/kg iv, day 17 of STZ administration): 305 ± 8
Body weight ([1]; 1 mg/kg iv, day 18 of STZ administration): 306 ± 7
Body weight ([1]; 1 mg/kg iv, day 19 of STZ administration): 307 ± 7
Body weight ([1]; 1 mg/kg iv, day 20 of STZ administration): 305 ± 9
Body weight ([1]; 1 mg/kg iv, day 21 of STZ administration): 304 ± 8
Body weight ([1]; 1 mg/kg iv, day 22 of STZ administration): 309 ± 8
Body weight ([1]; 1 mg/kg iv, day 23 of STZ administration): 309 ± 9
Body weight ([1]; 1 mg/kg iv, day 24 of STZ administration): 311 ± 9
Body weight ([1]; 1 mg/kg iv, day 25 of STZ administration): 309 ± 9
Body weight ([1]; 1 mg/kg iv, day 26 of STZ administration): 311 ± 9
Body weight ([1]; 1 mg/kg iv, day 27 of STZ administration): 308 ± 9
Body weight ([1]; 1 mg/kg iv, day 28 of STZ administration): 309 ± 9
Body weight ([1]; 1 mg/kg iv, day 29 of STZ administration): 310 ± 9
Body weight ([1]; 1 mg/kg iv, day 30 of STZ administration): 308 ± 10
Body weight ([1]; 1 mg/kg iv, day 31 of STZ administration): 306 ± 9
Body weight ([1]; 1 mg/kg iv, day 32 of STZ administration): 309 ± 10
Body weight ([1]; 1 mg/kg iv, day 33 of STZ administration): 308 ± 10
Blood glucose level, Glu ([2]; 0.01 mg/kg iv group, day 7 of STZ administration (before start of dosing)): 581.8 ± 18.5 mg/dL
Blood glucose level, Glu ([2]; 0.01 mg/kg iv, day 35 of STZ administration): 623.6 ± 22.0 mg/dL
Blood glucose level, Glu ([2]; 0.1 mg/kg iv group, day 7 of STZ administration (before start of dosing)): 576.3 ± 15.5 mg/dL
Blood glucose level, Glu ([2]; 0.1 mg/kg iv, day 35 of STZ administration): 608.4 ± 32.7 mg/dL
Blood glucose level, Glu ([2]; 1 mg/kg iv group, day 7 of STZ administration (before start of dosing)): 562.7 ± 14.7 mg/dL
Blood glucose level, Glu ([2]; 1 mg/kg iv, day 35 of STZ administration): 605.6 ± 18.9 mg/dL
